Assay results from US20210015772A1, “PHARMACEUTICAL COMPOSITION FOR PREVENTION OR TREATMENT OF FIBROSIS” (CRYSTALGENOMICS, INC., priority 2018, published 2021).

Tests used:
Format in all cases: in vivo, C57BL/6 mice
[1] = test system: kidney with acute renal failure induced after ureteral obstruction (renal fibrosis); test: Histopathology analysis (hematoxylin and eosin) of kidney in unilateral ureteral obstruction (renal failure) mouse model; conditions: 30 mg/kg/day intake in distilled water, day 7 after ureteral obstruction, compared to the solvent control group
Method: 8-week old female C57BL/6 mice were used. After opening the abdomen of C57BL/6 mice, one of two ureters was closed with 6-0 cotton yarn. After closing the ureter, the abdomen was sutured and disinfected. Immediately after surgery, the host mice were classified into the solvent control group which is the non-intake group, and the CG200745 intake group in which CG200745 dissolved in distilled water was consumed (30 mg/kg/day). On the 7th day after surgery, the solvent control group and the CG200745 intake group mice were euthanized, and then normal kidney and the kidney with acute renal failure induced after ureteral obstruction were extracted. The extracted normal kidney and kidney with acute renal failure induced were fixed with 4% paraformaldehyde, and then covered with paraffin to prepare a tissue section with a 3 μm thickness. Hematoxylin and eosin staining was conducted on the completed tissue sections to perform a histopathological analysis of renal tissues. For hematoxylin staining, kidney tissue sections were stained with Gill's hematoxylin for 5 minutes, washed with tap water, and then treated with 95% ethanol. Eosin staining was performed by staining with eosin and phloxine for 1 minute. The tissue sections were then dehydrated with ethanol and xylene and fixed with Canada balsam.

collagen [2] = test: Sircol assay of bronchoalveolar lavage fluid in bleomycin-induced mouse model; conditions: 15, 30, 60 mg/kg intraperitoneally for 2 weeks after 2 mg/kg bleomycin into the airway
Method: (§1) As a bleomycin model, 7-week old female C57BL/6 mice were used, and the mice were divided into a total of 5 groups, a bleomycin-administered group, CG200745-administered groups in which CG200745 is administered at 15, 30, 60 mg/kg after administration of bleomycin, and a control group to perform the experiment. Airway incision was performed on the mice and 2 mg/kg bleomycin was injected into the airway in a volume of 50 μl. After injection, the incision site was closed with 5-0 nylon. After the injection of bleomycin, the drug was administered intraperitoneally for a total of 2 weeks.
(§2) After two weeks of drug administration, the skin of the airway of the mouse was incised to expose the airway and washed with 800 μl of PBS into the trachea and then 500 μl of the solution was recovered therefrom to obtain bronchoalveolar lavage fluid. The bronchoalveolar lavage fluid was centrifuged at 4° C. and 1,200 rpm for 5 minutes to obtain supernatant. 50 μl of the bronchoalveolar lavage fluid and 1 ml of sircol dye reagent were mixed for 30 minutes. After centrifugation at 4° C. and 12,000 rpm for 10 minutes, the supernatant was discarded, 750 μl of Acid-salt wash reagent was added for washing, and then centrifugation was performed at 12,000 rpm for 10 minutes. After discarding the supernatant, 1 ml of Alkali reagent was added and absorbance was measured at 555 nm.

collagen [3] = test: Sircol assay of bronchoalveolar lavage fluid in polyhexamethylene guanidine-induced pulmonary fibrosis mouse model; conditions: 15, 30, 60 mg/kg intraperitoneally for 2 weeks after 1 mg/kg polyhexamethylene guanidine into the airway
Method: as §1, with “a polyhexamethylene guanidine (PHMG)” for “a bleomycin”, “a polyhexamethylene guanidine-administered” for “a bleomycin-administered”, “of polyhexamethylene guanidine,” for “of bleomycin,”, “and 1” for “and 2”, “mg/kg polyhexamethylene guanidine” for “mg/kg bleomycin”
as §2, with “After centrifugation at 4° C. and 12,000 rpm for 10 minutes, the supernatant was discarded, 750 μl of Acid-salt wash reagent was added for washing, and then centrifugation was performed at 12,000 rpm for 10 minutes.” left out

[4] = test system: α-SMA, Collagen I, PAI-1, Acetylated H3; test: Western blot of fibrosis markers and Acetylated H3 in lung tissue of polyhexamethylene guanidine-induced pulmonary fibrosis mouse model; conditions: PHMG model, 15, 30, 60 mg/kg intraperitoneally for 2 weeks, western blot densitometry
Method: as §1, with “a polyhexamethylene guanidine (PHMG)” for “a bleomycin”, “a polyhexamethylene guanidine-administered” for “a bleomycin-administered”, “of polyhexamethylene guanidine,” for “of bleomycin,”, “and 1” for “and 2”, “mg/kg polyhexamethylene guanidine” for “mg/kg bleomycin”
(§3) Western blot was performed to identify makers of pulmonary fibrosis (α-SMA, collagen I, PAI-1, E-cadherin, N-cadherin) and Acetylated H3 in tissues. The mice were sacrificed, and then subjected to chest opening and the lungs were removed and stored frozen for a day, and the mouse tissues were ground to prepare a protein sample. It was subjected to SDS-PAGE and the fractionated protein sample was transferred to PVDF (polyvinylidene difluoride) membrane. […]
(§4) With the average for two controls being 1, the relative value was recorded to conduct densitometry analysis.

[5] = test system: polyhexamethylene guanidine-induced pulmonary fibrosis; test: Histopathological analysis of lung (H&E, Masson's trichrome) in polyhexamethylene guanidine-induced pulmonary fibrosis mouse model; conditions: 15, 30, 60 mg/kg intraperitoneally for 2 weeks after 1 mg/kg polyhexamethylene guanidine into the airway
Method: (§5) As a polyhexamethylene guanidine (PHMG) model, 7-week old female C57BL/6 mice were used, and the mice were divided into a total of 5 groups, a polyhexamethylene guanidine-administered group, CG200745-administered groups in which CG200745 is administered at 15, 30, 60 mg/kg after administration of polyhexamethylene guanidine, and a control group to perform the experiment. Airway incision was performed on the mice and 1 mg/kg polyhexamethylene guanidine was injected into the airway in a volume of 50 μl. After injection, the incision site was closed with 5-0 nylon. After the injection of polyhexamethylene guanidine, the drug was administered intraperitoneally for a total of 2 weeks. The mice were sacrificed and subjected to chest opening and then the lungs were removed and fixed with 4% paraformaldehyde. They were fixed by immersing in 4% paraformaldehyde for 48 hours at 4° C., and then a paraffin block was prepared. 4 μm of microsection was made from the paraffin-embedded tissue and attached to a slide. Hemotoxin and eosin staining and Masson's trichrome staining were performed. For hemotoxin and eosin staining, the slide was immersed in xylene twice for 5 minutes each and in 100%, 95% and 70% ethanol for 2 minutes each, and washed with running distilled water. […]

[6] = test system: α-SMA, Collagen I, PAI-1, Acetylated H3; test: Western blot of fibrosis markers and Acetylated H3 in lung tissue of bleomycin-induced mouse model; conditions: 15, 30, 60 mg/kg intraperitoneally for 2 weeks, western blot densitometry
Method: as §1, §3, §4

[7] = test system: α-SMA (alpha-smooth muscle actin); test: Expression level of fibrosis marker α-SMA by real-time PCR in kidney of unilateral ureteral obstruction mouse model; conditions: 30 mg/kg intake, kidney with renal failure induced through ureteral obstruction, compared to the solvent control group
Method: 8-week old female C57BL/6 mice were used. After opening the abdomen of C57BL/6 mice, one of two ureters was closed with 6-0 cotton yarn. After closing the ureter, the abdomen was sutured and disinfected. Immediately after surgery, the host mice were classified into the solvent control group which is the non-intake group, and the CG200745 intake group in which CG200745 dissolved in distilled water was consumed (30 mg/kg/day). On the 7th day after surgery, the solvent control group and the CG200745 intake group mice were euthanized, and then normal kidney and the kidney with acute renal failure induced after ureteral obstruction were extracted. […]
The kidney cortex was homogenized with Trizol solution (Invitrogen, Carlsbad, Calif.). […] The washed RNA was dissolved in distilled water and then the concentration was determined by measuring absorbance at 260 nm (Ultraspec 2000; Pharmacia Biotech, Cambridge, UK). cDNA was produced by reverse transcription of […] RNA using oligo(dT) primer and superscript reverse transcriptase II (Invitrogen, Carlsbad, Calif.). The produced cDNA was quantified by measuring with SYBR Green using Smart Cycler II System (Cepheid, Sunnyvale, Calif.). […]

[8] = test system: bleomycin-induced pulmonary fibrosis; test: Histopathological analysis of lung (H&E, Masson's trichrome) in bleomycin-induced mouse model; conditions: 15, 30, 60 mg/kg intraperitoneally for 2 weeks after 2 mg/kg bleomycin into the airway
Method: as §5, with “a bleomycin” for “a polyhexamethylene guanidine (PHMG)”, “a bleomycin-administered” for “a polyhexamethylene guanidine-administered”, “of bleomycin,” for “of polyhexamethylene guanidine,”, “and 2” for “and 1”, “mg/kg bleomycin” for “mg/kg polyhexamethylene guanidine”, “water. After washing, the slide was immersed in hematoxylin for 1 minute, washed several times with running distilled water, then immersed in eosin for 30 seconds and washed several times with running distilled water.” for “water.”

Compound: CN(C)CCCNC(=O)/C(=C/CCCCC(=O)NO)COc1cccc2ccccc12 [CG200745, (E)-N1-(3-(dimethylamino)propyl)-N8-hydroxy-2-((naphthalene-1-yloxy)methyl)oct-2-enediamide]
- fibrosis progression in the kidney (histopathology) [1]: inhibited
- collagen in bronchoalveolar lavage fluid increased by bleomycin treatment (sircol assay) (collagen [2]): significantly decreased in CG200745 concentration-dependent manner
- collagen in bronchoalveolar lavage fluid increased by polyhexamethylene guanidine (sircol assay) (collagen [3]): significantly decreased in CG200745 concentration-dependent manner
- expression levels of fibrosis markers (α-SMA, Collagen I, PAI-1) increased by polyhexamethylene guanidine treatment ([4]; lung tissue): reduced in CG200745 concentration-dependent manner
- level of histone acetylation (Acetylated H3) in lung tissue [4]: increased
- polyhexamethylene guanidine-induced pulmonary fibrosis (lung histopathology) [5]: suppressed in CG200745 concentration-dependent manner and normalized
- expression levels of fibrosis markers (α-SMA, Collagen I, PAI-1) increased by bleomycin treatment ([6]; lung tissue): reduced in CG200745 concentration-dependent manner
- level of histone acetylation (Acetylated H3) in lung tissue [6]: increased
- reduction of α-SMA expression (real-time PCR) [7]: ≥ 50%
- degree of fibrosis and collagen accumulation increased by bleomycin treatment (lung histopathology) [8]: significantly decreased in CG200745 concentration-dependent manner and normalized
